Assay results reported in patent publication US6977262B2, “Dihydropyrazolopyridine compounds and pharmaceutical use thereof” (Mitsubishi Pharma Corporation, priority 2001, dated 2005).

| SMILES | melting point |
| --- | --- |
| CC1=C(C#N)C(c2cccc3nonc23)c2c[nH]nc2N1 (centres unmarked) [Example 176, 4-(2,1,3-Benzoxadiazol-4-yl)-5-cyano-4,7-dihydro-6-methyl-2H-pyrazolo[3,4-b]pyridine] | 212 °C |
| CCCCC1=C(C#N)C(c2cccc3nonc23)c2c[nH]nc2N1 (centres unmarked) [Example 177, 4-(2,1,3-Benzoxadiazol-4-yl)-6-butyl-5-cyano-4,7-dihydro-2H-pyrazolo[3,4-b]pyridine] | 200 °C |
| CCCC1=C(C(=O)OCC)C(c2cccc(C)c2Cl)c2c[nH]nc2N1 (centres unmarked) [Example 178, Ethyl 4-(2-chloro-3-methylphenyl)-4,7-dihydro-6-propyl-2H-pyrazolo[3,4-b]pyridine-5-carboxylate] | 198 to 200 °C |
| CCCC1=C(C(=O)OCC)C(c2cccc(C#N)c2Cl)c2c[nH]nc2N1 (centres unmarked) [Example 180, Ethyl 4-(2-chloro-3-cyanophenyl)-4,7-dihydro-6-propyl-2H-pyrazolo[3,4-b]pyridine-5-carboxylate] | 213 to 215 °C |
| CCCC1=C(C(=O)OCC)C(c2cccc(Br)c2Br)c2c[nH]nc2N1 (centres unmarked) [Example 181, Ethyl 4-(2,3-dibromophenyl)-4,7-dihydro-6-propyl-2H-pyrazolo[3,4-b]pyridine-5-carboxylate] | 180 to 183 °C (dec.) |
| CCCC1=C(C(=O)OCC)C(c2cccc(C#N)c2Br)c2c[nH]nc2N1 (centres unmarked) [Example 183, Ethyl 4-(2-bromo-3-cyanophenyl)-4,7-dihydro-6-propyl-2H-pyrazolo[3,4-b]pyridine-5-carboxylate] | 210 to 212 °C (dec.) |
| CCCC1=C(C#N)C(c2cccc(C#N)c2Cl)c2c[nH]nc2N1 (centres unmarked) [Example 184, 4-(2-Chloro-3-cyanophenyl)-5-cyano-4,7-dihydro-6-propyl-2H-pyrazolo[3,4-b]pyridine] | > 250 °C |
| CCCC1=C(C#N)C(c2cccc([N+](=O)[O-])c2Cl)c2c[nH]nc2N1 (centres unmarked) [Example 185, 4-(2-Chloro-3-nitrophenyl)-5-cyano-4,7-dihydro-6-propyl-2H-pyrazolo[3,4-b]pyridine] | 234 to 235 °C |
| CCCC1=C(C#N)C(c2cccc([N+](=O)[O-])c2Br)c2c[nH]nc2N1 (centres unmarked) [Example 189, 4-(2-Bromo-3-nitrophenyl)-5-cyano-4,7-dihydro-6-propyl-2H-pyrazolo[3,4-b]pyridine] | 250 to 255 °C (dec.) |
| CCCC1=C(C(=O)OCC)C(c2cccc(C)c2OC)c2c[nH]nc2N1 (centres unmarked) [Example 190, Ethyl 4,7-dihydro-4-(2-methoxy-3-methylphenyl)-6-propyl-2H-pyrazolo[3,4-b]pyridine-5-carboxylate] | 220 to 222 °C |
| CCCC1=C(C(=O)OCC)C(c2cccc(C#N)c2OC)c2c[nH]nc2N1 (centres unmarked) [Example 191, Ethyl 4-(3-cyano-2-methoxyphenyl)-4,7-dihydro-6-propyl-2H-pyrazolo[3,4-b]pyridine-5-carboxylate] | 220 to 222 °C |
| CCC1=C(C#N)C(c2ccccc2[N+](=O)[O-])c2c[nH]nc2N1 (centres unmarked) [Example 192, 5-Cyano-6-ethyl-4,7-dihydro-4-(2-nitrophenyl)-2H-pyrazolo[3,4-b]pyridine] | 228 to 230 °C (dec.) |
| CCC1=C(C#N)C(c2cccc(Cl)c2Cl)c2c[nH]nc2N1 (centres unmarked) [Example 193, 5-Cyano-4-(2,3-dichlorophenyl)-6-ethyl-4,7-dihydro-2H-pyrazolo[3,4-b]pyridine] | > 300 °C |
| CCC1=C(C#N)C(c2ccccc2OC)c2c[nH]nc2N1 (centres unmarked) [Example 194, 5-Cyano-6-ethyl-4,7-dihydro-4-(2-methoxyphenyl)-2H-pyrazolo[3,4-b]pyridine] | 230 to 232 °C |
| CCC1=C(C#N)C(c2cccc(C#N)c2Cl)c2c[nH]nc2N1 (centres unmarked) [Example 195, 4-(2-Chloro-3-cyanophenyl)-5-cyano-6-ethyl-4,7-dihydro-2H-pyrazolo[3,4-b]pyridine] | > 300 °C |
| CCC1=C(C#N)C(c2ccccc2Cl)c2c[nH]nc2N1 (centres unmarked) [Example 197, 4-(2-Chlorophenyl)-5-cyano-6-ethyl-4,7-dihydro-2H-pyrazolo[3,4-b]pyridine] | > 300 °C |
| CCC1=C(C#N)C(c2cccc(C#N)c2Br)c2c[nH]nc2N1 (centres unmarked) [Example 198, 4-(2-Bromo-3-cyanophenyl)-5-cyano-6-ethyl-4,7-dihydro-2H-pyrazolo[3,4-b]pyridine] | > 300 °C |
| CCC1=C(C#N)C(c2ccccc2Br)c2c[nH]nc2N1 (centres unmarked) [Example 199, 4-(2-Bromophenyl)-5-cyano-6-ethyl-4,7-dihydro-2H-pyrazolo[3,4-b]pyridine] | 250 to 253 °C (dec.) |
| CCCC1=C(C#N)C(c2cccc(C(F)(F)F)c2Cl)c2c[nH]nc2N1 (centres unmarked) [Example 201, 4-(2-Chloro-3-trifluoromethylphenyl)-5-cyano-4,7-dihydro-6-propyl-2H-pyrazolo[3,4-b]pyridine] | > 250 °C |
| N#CC1=C(c2ccccc2)Nc2n[nH]cc2C1c1cccc(C(F)(F)F)c1Cl (centres unmarked) [Example 202, 4-(2-Chloro-3-trifluoromethylphenyl)-5-cyano-4,7-dihydro-6-phenyl-2H-pyrazolo[3,4-b]pyridine] | > 250 °C |
| CCCC1=C(C(=O)OCC)C(c2ccccc2Cl)c2cnn(C(=O)OC(C)(C)C)c2N1 (centres unmarked) [Example 204, Ethyl 1-tert-butoxycarbonyl-4-(2-chlorophenyl)-4,7-dihydro-6-propyl-1H-pyrazolo[3,4-b]pyridine-5-carboxylate] | 112 to 116 °C |
| CCCC1=C(C(=O)OCC)C(c2ccccc2Cl)c2cn(C(=O)OC(C)(C)C)nc2N1 (centres unmarked) [Example 205, Ethyl 2-tert-butoxycarbonyl-4-(2-chlorophenyl)-4,7-dihydro-6-propyl-2H-pyrazolo[3,4-b]pyridine-5-carboxylate] | 144 to 147 °C |

The next lines start with the values.

| melting point | SMILES |
| --- | --- |
| > 250 °C | CC(C)C1=C(C#N)C(c2ccccc2Cl)c2c[nH]nc2N1 (centres unmarked) [Example 203, 4-(2-Chlorophenyl)-5-cyano-4,7-dihydro-6-isopropyl-2H-pyrazolo[3,4-b]pyridine] |
| 141 to 143 °C | CCCC1=C(C(=O)OCC)C(c2ccccc2Cl)c2cn(C(=O)OC)nc2N1 (centres unmarked) [Example 207, Ethyl 4-(2-chlorophenyl)-4,7-dihydro-2-methoxycarbonyl-6-propyl-2H-pyrazolo[3,4-b]pyridine-5-carboxylate] |
| 80 °C | CCCC1=C(C(=O)OCC)C(c2ccccc2Cl)c2cnn(C(=O)OCc3ccccc3)c2N1 (centres unmarked) [Example 208, Ethyl 1-benzyloxycarbonyl-4-(2-chlorophenyl)-4,7-dihydro-6-propyl-1H-pyrazolo[3,4-b]pyridine-5-carboxylate] |
| 115 °C | CCCC1=C(C(=O)OCC)C(c2ccccc2Cl)c2cnn(C(=O)c3ccccc3)c2N1 (centres unmarked) [Example 210, Ethyl 1-benzoyl-4-(2-chlorophenyl)-4,7-dihydro-6-propyl-1H-pyrazolo[3,4-b]pyridine-5-carboxylate] |
| 119 to 121 °C | CCCC1=C(C(=O)OCC)C(c2ccccc2Cl)c2cn(C(=O)c3ccccc3)nc2N1 (centres unmarked) [Example 211, Ethyl 2-benzoyl-4-(2-chlorophenyl)-4,7-dihydro-6-propyl-2H-pyrazolo[3,4-b]pyridine-5-carboxylate] |
| 145 to 147 °C | CCCC1=C(C(=O)OCC)C(c2ccccc2Cl)c2cn(C(=O)Nc3ccccc3)nc2N1 (centres unmarked) [Example 215, Ethyl 4-(2-chlorophenyl)-4,7-dihydro-2-phenylcarbamoyl-6-propyl-2H-pyrazolo[3,4-b]pyridine-5-carboxylate] |
| 156 to 157 °C | CCCC1=C(C(=O)OCC)C(c2ccccc2Cl)c2cn(C(=O)Oc3ccccc3)nc2N1 (centres unmarked) [Example 218, Ethyl 4-(2-chlorophenyl)-4,7-dihydro-2-phenoxycarbonyl-6-propyl-2H-pyrazolo[3,4-b]pyridine-5-carboxylate] |
| 88 to 89 °C | CCCC1=C(C(=O)OCC)C(c2ccccc2Cl)c2cnn(C(=O)OCC)c2N1 (centres unmarked) [Example 219, Ethyl 4-(2-chlorophenyl)-1-ethoxycarbonyl-4,7-dihydro-6-propyl-1H-pyrazolo[3,4-b]pyridine-5-carboxylate] |
| 66 to 68 °C | CCCOC(=O)n1ncc2c1NC(CCC)=C(C(=O)OCC)C2c1ccccc1Cl (centres unmarked) [Example 221, Ethyl 4-(2-chlorophenyl)-4,7-dihydro-1-propoxycarbonyl-6-propyl-1H-pyrazolo[3,4-b]pyridine-5-carboxylate] |
| 59 °C | CCCOC(=O)n1cc2c(n1)NC(CCC)=C(C(=O)OCC)C2c1ccccc1Cl (centres unmarked) [Example 222, Ethyl 4-(2-chlorophenyl)-4,7-dihydro-2-propoxycarbonyl-6-propyl-2H-pyrazolo[3,4-b]pyridine-5-carboxylate] |
| 75 to 76 °C | CCCC1=C(C(=O)OCC)C(c2ccccc2Cl)c2cnn(C(C)=O)c2N1 (centres unmarked) [Example 224, Ethyl 1-acetyl-4-(2-chlorophenyl)-4,7-dihydro-6-propyl-1H-pyrazolo[3,4-b]pyridine-5-carboxylate] |
| 131 to 134 °C | CCCC1=C(C(=O)OCC)C(c2ccccc2Cl)c2cnn(C(=O)C=Cc3ccccc3)c2N1 (centres unmarked) [Example 228, Ethyl 4-(2-chlorophenyl)-1-cinnamoyl-4,7-dihydro-6-propyl-1H-pyrazolo[3,4-b]pyridine-5-carboxylate] |
| 164 to 165 °C | CCCC1=C(C(=O)OCC)C(c2ccccc2Cl)c2c(n[nH]c2C)N1 (centres unmarked) [Example 230, Ethyl 4-(2-chlorophenyl)-4,7-dihydro-3-methyl-6-propyl-2H-pyrazolo[3,4-b]pyridine-5-carboxylate] |
| 150 to 151 °C | CCCC1=C(C(=O)OCC)C(c2ccccc2Cl)c2cn(C)nc2N1 (centres unmarked) [Example 231, Ethyl 4-(2-chlorophenyl)-4,7-dihydro-2-methyl-6-propyl-2H-pyrazolo[3,4-b]pyridine-5-carboxylate] |
| 140 to 143 °C | CCCC1=C(C(=O)OCC)C(c2cccc(Cl)c2)c2c[nH]nc2N1 (centres unmarked) [Example 234, Ethyl 4-(3-chlorophenyl)-4,7-dihydro-6-propyl-2H-pyrazolo[3,4-b]pyridine-5-carboxylate] |
| 159 to 161 °C | CCCC1=C(C(=O)OCC)C(c2ccc(Cl)cc2)c2c[nH]nc2N1 (centres unmarked) [Example 235, Ethyl 4-(4-chlorophenyl)-4,7-dihydro-6-propyl-2H-pyrazolo[3,4-b]pyridine-5-carboxylate] |
